Values quoted from earlier work as cited in patent US9309575B2, “Mutant strains of Escherichia coli, a method of testing potential antibacterial agents using said strains as well as a testing kit” (Instytut Biologii Doswiadczalnej IM. M. Nenckiego Pan, priority 2010, dated 2016).

Tested on: gram-negative bacteria
Details: at concentrations of 1-10 μg/ml

Substance: polymyxin B nonapeptide [PMBN]
- biocidal properties: does not exhibit biocidal properties
